Data on 2 compounds can be found in article PMC4595737, “Cyclic diguanylate monophosphate directly binds to human siderocalin and inhibits its antibacterial activity” (Nature Communications, 2015).

Broadly, the Kd is a measure of binding affinity in units of concentration.

Type in all cases: binding
Assay [1] addresses T1, STING (Homo sapiens, UniProt Q86WV6).
T1 construct: gene STING1
The assay is described as follows: UV cross-linking with c-di-[…]GMP, SDS-PAGE autoradiography (STING as positive control).

Assay [2] concerns the target T2, Siderocalin (LCN2) (Homo sapiens, UniProt P80188).
T2 construct: recombinant human LCN2 (rLCN2) without a signal peptide fragment
Kind of assay: ITC ([…], n=[…]); UV cross-linking with c-di-[…]GMP and cold competition.

The target of assay [3] is T2, Siderocalin (LCN2). Kind of assay: ITC; competition with c-di-[…]GMP cross-linking.
In assay [4] the target is T3, Siderocalin (LCN2), rLCN2-W79A (Homo sapiens, UniProt P80188, W99A).
T3 construct: recombinant human LCN2 (rLCN2) without a signal peptide fragment
T3 sequence (P80188 21-198 W99A): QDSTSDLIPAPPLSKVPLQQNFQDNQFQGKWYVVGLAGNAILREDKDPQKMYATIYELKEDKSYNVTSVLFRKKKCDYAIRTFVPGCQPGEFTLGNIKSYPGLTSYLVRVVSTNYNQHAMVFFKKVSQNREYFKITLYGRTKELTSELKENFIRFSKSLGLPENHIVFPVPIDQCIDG
The assay is described as follows: ITC. On the technique in general: ITC needs no label: the signal is the heat of the interaction.

T2 sequence (P80188 21-198): as the sequence (P80188 21-198 W99A) above, with A79W counted along it
T1 sequence (Q86WV6 whole entry): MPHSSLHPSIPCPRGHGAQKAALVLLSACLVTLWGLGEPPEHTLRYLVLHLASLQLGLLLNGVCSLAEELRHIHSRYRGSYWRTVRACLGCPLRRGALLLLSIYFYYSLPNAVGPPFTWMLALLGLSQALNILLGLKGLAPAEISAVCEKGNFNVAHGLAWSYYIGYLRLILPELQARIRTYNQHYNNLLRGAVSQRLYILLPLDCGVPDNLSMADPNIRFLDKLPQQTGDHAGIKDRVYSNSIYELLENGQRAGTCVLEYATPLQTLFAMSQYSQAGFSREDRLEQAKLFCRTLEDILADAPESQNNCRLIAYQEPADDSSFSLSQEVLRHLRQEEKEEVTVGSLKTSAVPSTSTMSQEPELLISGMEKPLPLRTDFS

Consider `Nc1nc2c(ncn2[C@@H]2O[C@@H]3COP(=O)(O)O[C@H]4[C@@H](O)[C@H](n5cnc6c(=O)[nH]c(N)nc65)O[C@@H]4COP(=O)(O)O[C@H]3[C@H]2O)c(=O)[nH]1` [c-di-GMP], for which the “UV cross-linking with c-di-[32P]GMP, SDS-PAGE autoradiography (STING as positive)” value in assay [1] is given as “STING, as a positive control, could clearly bind to the second messenger as indicated by an autoradiograph signal”. This compound also yielded a Kd in assay [2] of 1630 ± 50 nM.
`O=C(N[C@H]1COC(=O)[C@@H](NC(=O)c2cccc(O)c2[O-])COC(=O)[C@@H](NC(=O)c2cccc(O)c2[O-])COC1=O)c1cccc(O)c1[O-].[Fe+3]` [ferric enterobactin]: the Kd in assay [3] came out at 240 ± 30 nM; in assay [4], 250 ± 50 nM.
